Consider eleven compounds from patent publication US10538555B2, “Macrocyclic inhibitors of the PD-1/PD-L1 and CD80(B7-1)/PD-L1 protein/protein interactions” (BRISTOL-MYERS SQUIBB COMPANY, priority 2014, dated 2020).

Structures are written as SMILES. Where a SMILES comes first, the peptide text is derived from it. Bridges are numbered along the chain shown (N, C = ends). [ ]: non-standard residue; d: D form. ξ: configuration not given here. Trp(1-CH2COOH) = N[C@@H](Cc1cn(CC(=O)O)c2ccccc12)C(=O)O; Trp(βS-Me) = C[C@@H](c1c[nH]c2ccccc12)[C@H](N)C(=O)O; Phe(3,4,5-F3) = N[C@@H](Cc1cc(F)c(F)c(F)c1)C(=O)O; Phe(3,4-F2) = N[C@@H](Cc1ccc(F)c(F)c1)C(=O)O; Phe(4-F) = N[C@@H](Cc1ccc(F)cc1)C(=O)O; d(cisHyp) = O=C(O)[C@H]1C[C@@H](O)CN1; Bta = N[C@@H](Cc1csc2ccccc12)C(=O)O; Hyp = O=C(O)[C@@H]1C[C@@H](O)CN1; NMeF = CN[C@@H](Cc1ccccc1)C(=O)O; hIle(4ξ) = CCC(C)C[C@H](N)C(=O)O; dHyp = O=C(O)[C@H]1C[C@H](O)CN1; NMeNle = CCCC[C@H](NC)C(=O)O; NMeV = CN[C@H](C(=O)O)C(C)C; dNle = CCCC[C@@H](N)C(=O)O; dPip = O=C(O)[C@H]1CCCCN1; NMeA = CN[C@@H](C)C(=O)O; Orn = NCCC[C@H](N)C(=O)O; Dab = NCC[C@H](N)C(=O)O; dAze = O=C(O)[C@H]1CCN1; Dap = NC[C@H](N)C(=O)O; ξC = NC(CS)C(=O)O

The test deals with T1, Human PD-L1/PD-1 (Homo sapiens, UniProt Q9NZQ7).
T1 construct: TVMV protease cleavage site (C); made in house; host or cells: HEK293T cells
T1 sequence (Q9NZQ7 with tags, fused parts or gaps): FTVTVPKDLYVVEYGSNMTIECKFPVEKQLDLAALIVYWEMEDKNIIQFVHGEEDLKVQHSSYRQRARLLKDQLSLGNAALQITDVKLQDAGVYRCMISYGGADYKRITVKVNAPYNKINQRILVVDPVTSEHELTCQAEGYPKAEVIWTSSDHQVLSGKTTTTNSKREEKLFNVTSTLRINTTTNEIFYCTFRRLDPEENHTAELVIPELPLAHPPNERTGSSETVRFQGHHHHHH
Put plainly: HTRF Human PD-L1/PD-1 binding assay (PD-1-Ig/PD-L1-His). To be noted: PD-L1-His 10 nM, PD-1-Ig 20 nM; class symbol; read-out: HTRF Human PD-L1/PD-1 Binding Assay IC50 Range. Summed up: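 Compound preincubated 15 min with PD-L1-His (10 nM final), then PD-1-Ig (20 nM final) added for 15 min in dPBS with 0.1% BSA and 0.05% Tween-20. Detection by Eu-cryptate anti-Ig (1 nM) and APC anti-His (20 nM) after 30 min; 665/620 nm HTRF ratio. Proteins expressed in HEK293T.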
For `CCCC[C@H]1NC(=O)[C@H](Cc2c[nH]c3ccccc23)NC(=O)[C@H](CO)NC(=O)[C@H](Cc2c[nH]c3ccccc23)NC(=O)[C@@H]2C[C@@H](O)CN2C(=O)[C@H](CCC(N)=O)NC(=O)[C@H](Cc2cnc[nH]2)NC(=O)[C@@H]2CCCN2C(=O)[C@H](CC(=O)O)NC(=O)[C@H](C)N(C)C(=O)[C@H](Cc2ccc(O)cc2)NC(=O)CSCC(C(=O)NCC(N)=O)NC(=O)[C@H](CCC(=O)O)NC(=O)[C@H](CCCC)N(C)C1=O` (some centres unmarked) [Example 10128] ({CH2CO}-Y[NMeA]DPHQ[Hyp]WSW[dNle][NMeNle]E[ξC]G-NH2; thioether N-14), the IC50 lay in the range of 1000 to 10000 nM.

With `CCCC[C@H]1C(=O)N2C[C@@H](O)C[C@@H]2C(=O)N[C@@H](CC(=O)O)C(=O)N[C@@H](C(C)C)C(=O)N(C)[C@@H](Cc2ccccc2)C(=O)N[C@@H](CCC(=O)O)C(=O)N2C[C@@H](O)C[C@@H]2C(=O)N[C@@H](Cc2c[nH]c3ccccc23)C(=O)N[C@@H](Cc2ccc(O)cc2)C(=O)N[C@@H](CC(C)C)C(=O)N[C@H](C(=O)NCC(N)=O)CSCC(=O)N[C@@H](Cc2ccc(F)c(F)c2)C(=O)N(C)[C@@H](Cc2ccccc2)C(=O)N1C` [Example 9277] ({CH2CO}-[Phe(3,4-F2)][NMeF][NMeNle][dHyp]DV[NMeF]E[dHyp]WYLCG-NH2; thioether N-13), the IC50 was 1 to 9.9 nM. For `CCCC[C@H]1C(=O)N2CCC[C@@H]2C(=O)N[C@@H](CC(=O)O)C(=O)N[C@@H](C(C)C)C(=O)N(C)[C@@H](C(C)C)C(=O)N[C@@H](Cc2ccc(O)cc2)C(=O)N2CCCC[C@@H]2C(=O)N[C@@H](Cc2c[nH]c3ccccc23)C(=O)N[C@@H](Cc2ccc(O)cc2)C(=O)N[C@@H](CC(C)CC)C(=O)N[C@H](C(=O)NCC(N)=O)CSCC(=O)N[C@@H](Cc2ccc(F)cc2)C(=O)N(C)[C@@H](Cc2ccccc2)C(=O)N1C` (some centres unmarked) [Example 9242] ({CH2CO}-[Phe(4-F)][NMeF][NMeNle][dP]DV[NMeV]Y[dPip]WY[hIle(4ξ)]CG-NH2; thioether N-13) the value was 1000 to 10000 nM. `CCCC[C@H]1C(=O)N2CCC[C@@H]2C(=O)N[C@@H](CC(=O)O)C(=O)N[C@@H](C(C)C)C(=O)N(C)[C@@H](Cc2ccccc2)C(=O)N[C@@H](CCN)C(=O)N2CCC[C@@H]2C(=O)N[C@@H](Cc2c[nH]c3ccccc23)C(=O)N[C@@H](Cc2ccc(O)cc2)C(=O)N[C@@H](CC(C)C)C(=O)N[C@H](C(=O)NCC(N)=O)CSCC(=O)N[C@@H](Cc2ccc(F)cc2)C(=O)N(C)[C@@H](Cc2ccccc2)C(=O)N1C` [Example 10105] ({CH2CO}-[Phe(4-F)][NMeF][NMeNle][dP]DV[NMeF][Dab][dP]WYLCG-NH2; thioether N-13): the IC50 lay in the range of 1 to 9.9 nM. As to `CCCC[C@H]1C(=O)N(C)[C@@H](CCCC)C(=O)N[C@@H](C)C(=O)N[C@H](C(=O)NCC(N)=O)CSCC(=O)NC(Cc2ccc(O)cc2)C(=O)N2CCCC[C@H]2C(=O)N[C@@H](CC(N)=O)C(=O)N2CCC[C@H]2C(=O)N[C@@H](Cc2c[nH]cn2)C(=O)N[C@@H](CC(C)C)C(=O)N2C[C@H](O)C[C@H]2C(=O)N[C@@H](Cc2c[nH]c3ccccc23)C(=O)N[C@@H](CO)C(=O)N[C@@H](Cc2c[nH]c3ccccc23)C(=O)N1C` (some centres unmarked) [Example 1251], the IC50 was in the range of 1 to 9.9 nM.

For the compound `CCCC[C@H]1C(=O)N(C)[C@@H](CCCC)C(=O)N[C@@H](CCCNC(=N)N)C(=O)NC(C(=O)NCC(N)=O)CSCC(=O)N[C@@H](Cc2ccc(O)cc2)C(=O)N(C)[C@@H](C)C(=O)N[C@@H](CC(N)=O)C(=O)N2CCC[C@H]2C(=O)N[C@@H](CO)C(=O)N[C@@H](CO)C(=O)N2CCC[C@H]2C(=O)N[C@@H](Cc2c[nH]c3ccccc23)C(=O)N[C@@H](CO)C(=O)N[C@@H](Cc2csc3ccccc23)C(=O)N1C` (some centres unmarked) [Example 10015] ({CH2CO}-Y[NMeA]NPSSPWS[Bta][NMeNle][NMeNle]R[ξC]G-NH2; thioether N-14), the IC50 fell in the range of 1 to 9.9 nM.

With `CCCC[C@H]1C(=O)N(C)[C@@H](CCCC)C(=O)N[C@@H](CC(=O)O)C(=O)N[C@H](C(N)=O)CSCC(=O)N[C@@H](Cc2ccc(O)cc2)C(=O)N(C)[C@@H](C)C(=O)N[C@@H](CC(N)=O)C(=O)N2CCC[C@H]2C(=O)N[C@@H](CN)C(=O)N[C@@H](CC(C)C)C(=O)N2C[C@H](O)C[C@H]2C(=O)N[C@@H](Cc2c[nH]c3ccccc23)C(=O)N[C@@H](CO)C(=O)N[C@@H](Cc2cn(CC(=O)O)c3ccccc23)C(=O)N1C` [Example 6334] ({CH2CO}-Y[NMeA]NP[Dap]L[Hyp]WS[Trp(1-CH2COOH)][NMeNle][NMeNle]DC-NH2; thioether N-14), the IC50 was 1 to 9.9 nM.

For `CCCC[C@H]1C(=O)N(C)[C@@H](CCCC)C(=O)N[C@@H](CCCNC(=N)N)C(=O)NC(C(=O)NCC(N)=O)CSCC(=O)N[C@@H](Cc2ccc(O)cc2)C(=O)N(C)[C@@H](C)C(=O)N[C@@H](CC(N)=O)C(=O)N2CCC[C@H]2C(=O)N[C@@H](Cc2cnc[nH]2)C(=O)N[C@@H](CC(C)C)C(=O)N2CCC[C@H]2C(=O)N[C@@H](Cc2c[nH]c3ccccc23)C(=O)N[C@@H](CO)C(=O)N[C@@H](Cc2csc3ccccc23)C(=O)N1C` (some centres unmarked) [Example 10045] ({CH2CO}-Y[NMeA]NPHLPWS[Bta][NMeNle][NMeNle]R[ξC]G-NH2; thioether N-14), the IC50 is 10 to 99.9 nM.

Regarding `CCCC[C@H]1C(=O)N(C)[C@@H](CCCC)C(=O)N[C@@H](CC(C)C)C(=O)N[C@H](C(=O)NCC(N)=O)CSCC(=O)N[C@@H](Cc2ccc(O)cc2)C(=O)N2CCCC[C@@H]2C(=O)N[C@@H](CC(=O)O)C(=O)N2CCC[C@H]2C(=O)N[C@@H](Cc2cnc[nH]2)C(=O)N[C@@H](CCCCN)C(=O)N2C[C@H](O)C[C@H]2C(=O)N[C@@H](Cc2c[nH]c3ccccc23)C(=O)N[C@@H](CCCCN)C(=O)N[C@@H](Cc2cn(CC(=O)O)c3ccccc23)C(=O)N1C` [Example 1296] ({CH2CO}-Y[dPip]DPHK[Hyp]WK[Trp(1-CH2COOH)][NMeNle][NMeNle]LCG-NH2; thioether N-14), the IC50 lay within 1 to 9.9 nM. In the case of `CCCC[C@H]1C(=O)N2C[C@@H](O)C[C@@H]2C(=O)N[C@@H](CC(=O)O)C(=O)N[C@@H](C(C)C)C(=O)N(C)[C@@H](Cc2ccccc2)C(=O)N[C@@H](Cc2ccc(O)cc2)C(=O)N2CCC[C@@H]2C(=O)N[C@@H]([C@@H](C)c2c[nH]c3ccccc23)C(=O)N[C@@H](Cc2ccc(O)cc2)C(=O)N[C@@H](CC(C)C)C(=O)N[C@H](C(=O)NCC(N)=O)CSCC(=O)N[C@@H](Cc2cc(F)c(F)c(F)c2)C(=O)N(C)[C@@H](Cc2ccccc2)C(=O)N1C` [Example 10551] ({CH2CO}-[Phe(3,4,5-F3)][NMeF][NMeNle][dHyp]DV[NMeF]Y[dP][Trp(βS-Me)]YLCG-NH2; thioether N-13), the IC50 lay in the range of 1 to 9.9 nM.

With `CCCC[C@H]1C(=O)N2C[C@H](O)C[C@@H]2C(=O)N[C@@H](CC(=O)O)C(=O)N[C@@H](C(C)C)C(=O)N(C)[C@@H](Cc2ccccc2)C(=O)N[C@@H](CCC(=O)O)C(=O)N2CC[C@@H]2C(=O)N[C@@H](Cc2c[nH]c3ccccc23)C(=O)N[C@@H](Cc2ccc(O)cc2)C(=O)N[C@@H](CCCN)C(=O)N[C@H](C(=O)NCC(N)=O)CSCC(=O)N[C@@H](Cc2cc(F)c(F)c(F)c2)C(=O)N(C)[C@@H](Cc2ccccc2)C(=O)N1C` [Example 3644] ({CH2CO}-[Phe(3,4,5-F3)][NMeF][NMeNle][d(cisHyp)]DV[NMeF]E[dAze]WY[Orn]CG-NH2; thioether N-13), the IC50 fell in the range of 1 to 9.9 nM.
